From the supplement of paper PMC11208160

Test: recombinant UMI read abundance after kanamycin selection (control-corrected) (log10(CPM+1)); higher = more efficient recombination; extreme values may be limits of the assay; sequences stand for … in AGTGCAGAGAAAATCGGCCAGTTTTCTCTGCCTGCAGTCCGCATGCCGTGGGACCCCTTGGGTTCTAACCTGTTGCCTAGATTTATGCAGCGGACTGCCTTTCTCCCAAAGTGATAAACCGG…AGGTTGGTTTCACT; site = the 11-nt donor
Procedure, shortened: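 After plating on IPTG (0.07 mM) plus kanamycin, or unselected, in two replicates, recombinant UMIs were PCR-amplified across the donor–target junction and sequenced. The cells were Escherichia coli co-electroporated with a UMI-tagged donor and donor-binding-loop pair library and a target plasmid with a fixed target and T7-inducible IS621 bridge recombinase. Values are log10(CPM+1), with CPM averaged over replicates and scaled by control-derived factors.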
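Note: IS621 bridge recombinase in Escherichia coli cells against a fixed T5 target plasmid.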

Sequence	recombinant UMI read abundance (log10)
GGTGCACCATGGACCGGTTTTCCCGGTAATCCGTATTTGCA (site GGCGCACCTTG)	0.0224
GGTGCACCATGGACCGGTTTTCCCGGTAATCCGTATTTGCA (site GGGGCACCTTG)	0
GGTGCACCATGGACCGGTTTTCCCGGTAATCCGTATTTGCA (site GGTGCACCTTG)	0
GGTGCGTCATGGACCGGTTTTCCCGGTAATCCGTATTTGTT (site GGTACGTCTAA)	0.0157
GGTGCGTCATGGACCGGTTTTCCCGGTAATCCGTATTTGTT (site GGTCCGTCTAA)	0.0208
GGTGCGTCATGGACCGGTTTTCCCGGTAATCCGTATTTGTT (site GGTGCGTCTAA)	0.668
GGTGCGTCATGGACCGGTTTTCCCGGTAATCCGTATTTGTT (site GGTTCGTCTAA)	0.0103
GGTGCTGCATGGACCGGTTTTCCCGGTAATCCGTATTTGCT (site GGTGCTGCTAG)	1.53
GGTGTAGCATGGACCGGTTTTCCCGGTAATCCGTATTTGGT (site GGTGTAGCTAC)	0.0948
GGTGTGACATGGACCGGTTTTCCCGGTAATCCGTATTTGTG (site GGTGTGACTCA)	0.68
GGTGTGTCATGGACCGGTTTTCCCGGTAATCCGTATTTGTG (site GGTGTGTCTCA)	1.16
GGTTAGACATGGACCGGTTTTCCCGGTAATCCGTATTTGCC (site GGATAGACTGG)	1.17
GGTTAGACATGGACCGGTTTTCCCGGTAATCCGTATTTGCC (site GGCTAGACTGG)	1.32
GGTTAGACATGGACCGGTTTTCCCGGTAATCCGTATTTGCC (site GGGTAGACTGG)	1.27
GGTTAGACATGGACCGGTTTTCCCGGTAATCCGTATTTGCC (site GGTTAGACTGG)	1.9
GGTTAGTCATGGACCGGTTTTCCCGGTAATCCGTATTTGCC (site GGTTAGTCTGG)	2.06
GGTTCAACATGGACCGGTTTTCCCGGTAATCCGTATTTGTA (site GGTACAACTTA)	0.00935
GGTTCAACATGGACCGGTTTTCCCGGTAATCCGTATTTGTA (site GGTCCAACTTA)	0.262
GGTTCAACATGGACCGGTTTTCCCGGTAATCCGTATTTGTA (site GGTGCAACTTA)	0.00737
GGTTCAACATGGACCGGTTTTCCCGGTAATCCGTATTTGTA (site GGTTCAACTTA)	0.00797
GGTTCATCATGGACCGGTTTTCCCGGTAATCCGTATTTGCC (site GGTTCATCTGG)	1.07
GGTTCATCATGGACCGGTTTTCCCGGTAATCCGTATTTGCT (site CGATCATCTAG)	0
GGTTCATCATGGACCGGTTTTCCCGGTAATCCGTATTTGCT (site GGTTCATCTAG)	1.84
GGTTGTCCATGGACCGGTTTTCCCGGTAATCCGTATTTGGC (site GGTTGTCCTGC)	0
GGTTTGGCATGGACCGGTTTTCCCGGTAATCCGTATTTGCT (site AGTTTGGCTAG)	0.702

Sequence	recombinant UMI read abundance (log10)
GGTTTGGCATGGACCGGTTTTCCCGGTAATCCGTATTTGCT (site CGTTTGGCTAG)	0
GGTTTGGCATGGACCGGTTTTCCCGGTAATCCGTATTTGCT (site GGTTTGGCTAG)	0
GGTTTGGCATGGACCGGTTTTCCCGGTAATCCGTATTTGCT (site TGTTTGGCTAG)	0.00406
GTAAACGCATGGACCGGTTTTCCCGGTAATCCGTATTTGTT (site GTAAACGCTAA)	2.59
GTAACGCCATGGACCGGTTTTCCCGGTAATCCGTATTTGGT (site GTAACGCCTAC)	0.517
GTAAGTACATGGACCGGTTTTCCCGGTAATCCGTATTTGAC (site GTAAGTACTGT)	2.96
GTAAGTACATGGACCGGTTTTCCCGGTAATCCGTATTTGAC (site GTACGTACTGT)	0
GTAAGTACATGGACCGGTTTTCCCGGTAATCCGTATTTGAC (site GTAGGTACTGT)	0.255
GTAAGTACATGGACCGGTTTTCCCGGTAATCCGTATTTGAC (site GTATGTACTGT)	0.67
GTAATATCATGGACCGGTTTTCCCGGTAATCCGTATTTGCA (site GTAATATCTTG)	2.6
GTAATCACATGGACCGGTTTTCCCGGTAATCCGTATTTGCG (site GTAATCACTCG)	2.48
GTACGAGCATGGACCGGTTTTCCCGGTAATCCGTATTTGCA (site GTACGAGCTTG)	2.55
GTACGAGCATGGACCGGTTTTCCCGGTAATCCGTATTTGCA (site GTCCGAGCTTG)	0.87
GTACGAGCATGGACCGGTTTTCCCGGTAATCCGTATTTGCA (site GTGCGAGCTTG)	2.02
GTACGAGCATGGACCGGTTTTCCCGGTAATCCGTATTTGCA (site GTTCGAGCTTG)	0.659
GTACTAACATGGACCGGTTTTCCCGGTAATCCGTATTTGGA (site ATACTAACTTC)	0.569
GTACTAACATGGACCGGTTTTCCCGGTAATCCGTATTTGGA (site CTACTAACTTC)	0.455
GTACTAACATGGACCGGTTTTCCCGGTAATCCGTATTTGGA (site GTACTAACTTC)	1.29
GTACTAACATGGACCGGTTTTCCCGGTAATCCGTATTTGGA (site TTACTAACTTC)	0.593
GTAGATACATGGACCGGTTTTCCCGGTAATCCGTATTTGAC (site GTAGATACTGT)	2.29
GTAGATACATGGACCGGTTTTCCCGGTAATCCGTATTTGAC (site GTAGCTACTGT)	0
GTAGATACATGGACCGGTTTTCCCGGTAATCCGTATTTGAC (site GTAGGTACTGT)	1.38
GTAGATACATGGACCGGTTTTCCCGGTAATCCGTATTTGAC (site GTAGTTACTGT)	0.903
GTAGATTCATGGACCGGTTTTCCCGGTAATCCGTATTTGCA (site GTAGATTCTTG)	2.86
GTAGCAGCATGGACCGGTTTTCCCGGTAATCCGTATTTGGA (site GTAGCAGCTTC)	0.62

Sequence	recombinant UMI read abundance (log10)
GTAGCTCCATGGACCGGTTTTCCCGGTAATCCGTATTTGAA (site GTAGCTCCTTT)	1
GTAGGGACATGGACCGGTTTTCCCGGTAATCCGTATTTGAC (site GTAGGAACTGT)	2.21
GTAGGGACATGGACCGGTTTTCCCGGTAATCCGTATTTGAC (site GTAGGCACTGT)	2.04
GTAGGGACATGGACCGGTTTTCCCGGTAATCCGTATTTGAC (site GTAGGGACTGT)	2.63
GTAGGGACATGGACCGGTTTTCCCGGTAATCCGTATTTGAC (site GTAGGTACTGT)	1.87
GTAGGTACATGGACCGGTTTTCCCGGTAATCCGTATTTGTT (site GTAGGTACTAA)	1.01
GTAGGTCCATGGACCGGTTTTCCCGGTAATCCGTATTTGAC (site GTAGGTACTGT)	0
GTAGGTCCATGGACCGGTTTTCCCGGTAATCCGTATTTGAC (site GTAGGTCCTGT)	0
GTAGGTCCATGGACCGGTTTTCCCGGTAATCCGTATTTGAC (site GTAGGTGCTGT)	0
GTAGGTCCATGGACCGGTTTTCCCGGTAATCCGTATTTGAC (site GTAGGTTCTGT)	0
GTAGGTTCATGGACCGGTTTTCCCGGTAATCCGTATTTGAC (site GTAGGTACTGT)	1.88
GTAGGTTCATGGACCGGTTTTCCCGGTAATCCGTATTTGAC (site GTAGGTCCTGT)	1.78
GTAGGTTCATGGACCGGTTTTCCCGGTAATCCGTATTTGAC (site GTAGGTGCTGT)	0
GTAGGTTCATGGACCGGTTTTCCCGGTAATCCGTATTTGAC (site GTAGGTTCTGT)	2.46
GTAGTATCATGGACCGGTTTTCCCGGTAATCCGTATTTGAT (site CTAGTATCTGT)	1.05
GTAGTATCATGGACCGGTTTTCCCGGTAATCCGTATTTGAT (site GTAGTATCTAT)	3.08
GTAGTGGCATGGACCGGTTTTCCCGGTAATCCGTATTTGGT (site GAAGTGGCTAC)	0.458
GTAGTGGCATGGACCGGTTTTCCCGGTAATCCGTATTTGGT (site GCAGTGGCTAC)	0.771
GTAGTGGCATGGACCGGTTTTCCCGGTAATCCGTATTTGGT (site GGAGTGGCTAC)	0.028
GTAGTGGCATGGACCGGTTTTCCCGGTAATCCGTATTTGGT (site GTAGTGGCTAC)	1.85
GTAGTGTCATGGACCGGTTTTCCCGGTAATCCGTATTTGAC (site CTAGTATCTGT)	2.03
GTAGTGTCATGGACCGGTTTTCCCGGTAATCCGTATTTGAC (site GTAGTGTCTGT)	3.23
GTAGTTTCATGGACCGGTTTTCCCGGTAATCCGTATTTGTA (site GTAGTTTCTTA)	2.61
GTATGCACATGGACCGGTTTTCCCGGTAATCCGTATTTGCA (site GTATGCACTTA)	0.546
GTATGCACATGGACCGGTTTTCCCGGTAATCCGTATTTGCA (site GTATGCACTTC)	0.0124
